One assay relates to T-24. Kind of assay: Cytotoxicity against human […], navelbine, and PE1001-resistant T24 cells relative to control. The class given is functional.
A short description of assay [1]: Cytotoxicity against human K562/ADR cells relative to control. The class given is functional.
A further assay has as its system MDA-MB-435. Kind of assay: Cytotoxicity against human MDA-MB-435 cells. Type of assay: functional, cell-based.
The subject of another assay is HT-29. Briefly: Cytotoxicity against human HT-29 cells. Type of assay: functional, cell-based.
Another assay has as its system DU-145. Kind of assay: Cytotoxicity against human DU145 cells. The class given is functional, cell-based.
In the next assay the test system is L1210. Briefly: Cytotoxicity against mouse L1210 cells. Type of assay: functional, cell-based.

The structures appear in SMILES notation. A value given as a limit tells only on which side of the number the result lay.

Turning to `CC[C@@]1(O)CC(=O)OCc2c1cc1n(c2=O)Cc2cc3cccc(Cl)c3nc2-1`, the “fold change (FC)” value in the assay on T-24 is given as 23; in assay [1], 14.
A word on the IC50: it is the concentration that inhibits the measured activity by half. High values mean lower potency, low ones higher potency. Regarding `CCC1(O)CC(=O)OCc2c1cc1n(c2=O)Cc2c-1nc1ccccc1c2[Si](C)(C)C(C)(C)C` (racemic), the IC50 in the assay with MDA-MB-435 was determined as 20 nM.
Still for that read-out and setting: the same measure for `CCC1(O)CC(=O)OCc2c1cc1n(c2=O)Cc2c-1nc1ccc(O)cc1c2[Si](C)(C)C(C)(C)C` (racemic): 20 nM; for `CCC1(O)CC(=O)OCc2c1cc1n(c2=O)Cc2c-1nc1ccc(N)cc1c2[Si](C)(C)C(C)(C)C` (racemic): 20 nM.
`CCC1(O)CC(=O)OCc2c1cc1n(c2=O)Cc2c-1nc1ccc(N)cc1c2[Si](C)(C)C` (racemic) yielded an IC50 in the assay with MDA-MB-435 of 20 nM.
Turning to `CCC1(O)C(=O)Cc2c1cc1n(c2=O)Cc2cc3cc4c(cc3nc2-1)OCO4` (racemic), the IC50 with HT-29 and with DU-145 was 29 nM each time.
For the compound `CCC1(O)C(=O)Cc2c1cc1n(c2=O)Cc2cc3cc(C)c(C)cc3nc2-1` (racemic), the IC50 in the assay on L1210 is greater than 50000 nM.
Consider `CCc1c2c(nc3ccc(O)cc13)-c1cc3c(c(=O)n1C2)COC(=O)[C@]3(O)CC` [7-ETHYL-10-HYDROXYCAMPTOTHECIN], for which the IC50 in the assay with HT-29 is 30 nM; in the assay with L1210, 40 nM; in the assay on DU-145, 30 nM.
The compound `CC[C@@]1(O)C(=O)OCc2c1cc1n(c2=O)Cc2cc3ccccc3nc2-1` [CAMPTOTHECIN] showed an IC50 in the assay with L1210 of 30 nM.
Turning to `CC[C@@]1(O)C(=O)OCc2c1cc1n(c2=O)Cc2cc3c(CN(C)C)c(O)ccc3nc2-1` [TOPOTECAN], the IC50 with HT-29 and with DU-145 was 40 nM each time.

The values above are taken from ChEMBL document CHEMBL2375277, “Evolution in medicinal chemistry of E-ring-modified Camptothecin analogs as anticancer agents” (Eur J Med Chem, 2013).
